Source: US9243001B2, “Substituted benzene compounds” (Epizyme, Inc., priority 2013, dated 2016)
pIC50: −log10 of the molar value.

The compounds below were run against T1, wild-type EZH2 (PRC2 enzyme) (Homo sapiens, UniProt Q15910) (assay: PRC2 enzyme assay on peptide substrates (wild-type EZH2)). Conditions: wild-type PRC2 enzyme 4 nM, H3K27me0 peptide substrate, 3H-SAM Flashplate; read-out: WT EZH2 IC50.
T1 construct: made in house; host or cells: Spodoptera frugiperda (sf9) cells, baculovirus
T1 sequence (Q15910 1-751 isoform Q15910-2): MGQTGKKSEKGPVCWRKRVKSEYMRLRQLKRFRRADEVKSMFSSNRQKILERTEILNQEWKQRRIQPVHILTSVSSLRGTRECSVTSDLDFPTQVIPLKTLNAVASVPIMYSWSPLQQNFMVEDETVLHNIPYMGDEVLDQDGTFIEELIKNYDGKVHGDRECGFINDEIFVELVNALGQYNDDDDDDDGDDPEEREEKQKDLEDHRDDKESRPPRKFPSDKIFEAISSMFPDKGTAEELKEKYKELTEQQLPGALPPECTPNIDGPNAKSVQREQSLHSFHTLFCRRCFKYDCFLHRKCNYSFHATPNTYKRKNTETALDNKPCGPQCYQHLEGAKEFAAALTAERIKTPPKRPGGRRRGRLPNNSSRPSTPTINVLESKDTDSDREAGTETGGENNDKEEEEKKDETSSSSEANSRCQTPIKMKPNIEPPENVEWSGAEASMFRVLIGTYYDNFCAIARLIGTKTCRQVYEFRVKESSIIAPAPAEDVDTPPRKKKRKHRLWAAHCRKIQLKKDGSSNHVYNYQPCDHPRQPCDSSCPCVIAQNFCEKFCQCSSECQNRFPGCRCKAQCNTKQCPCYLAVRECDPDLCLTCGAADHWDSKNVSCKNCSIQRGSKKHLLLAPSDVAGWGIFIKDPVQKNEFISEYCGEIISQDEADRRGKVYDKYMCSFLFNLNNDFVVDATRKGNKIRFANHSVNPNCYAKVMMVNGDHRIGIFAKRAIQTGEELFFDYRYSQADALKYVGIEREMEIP
T1 sequence (O75530 whole entry partner): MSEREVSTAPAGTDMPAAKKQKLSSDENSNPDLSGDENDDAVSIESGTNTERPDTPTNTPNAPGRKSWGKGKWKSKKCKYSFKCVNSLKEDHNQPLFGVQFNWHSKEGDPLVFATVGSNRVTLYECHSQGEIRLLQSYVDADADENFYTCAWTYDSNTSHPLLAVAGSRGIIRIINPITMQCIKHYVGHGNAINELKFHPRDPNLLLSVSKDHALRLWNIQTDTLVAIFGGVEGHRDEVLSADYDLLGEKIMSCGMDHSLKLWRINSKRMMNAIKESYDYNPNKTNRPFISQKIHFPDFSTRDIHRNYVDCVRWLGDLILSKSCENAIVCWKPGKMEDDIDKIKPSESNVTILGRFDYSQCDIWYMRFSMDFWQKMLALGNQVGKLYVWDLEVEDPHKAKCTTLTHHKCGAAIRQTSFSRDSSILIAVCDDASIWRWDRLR
T1 sequence (Q15022 whole entry partner): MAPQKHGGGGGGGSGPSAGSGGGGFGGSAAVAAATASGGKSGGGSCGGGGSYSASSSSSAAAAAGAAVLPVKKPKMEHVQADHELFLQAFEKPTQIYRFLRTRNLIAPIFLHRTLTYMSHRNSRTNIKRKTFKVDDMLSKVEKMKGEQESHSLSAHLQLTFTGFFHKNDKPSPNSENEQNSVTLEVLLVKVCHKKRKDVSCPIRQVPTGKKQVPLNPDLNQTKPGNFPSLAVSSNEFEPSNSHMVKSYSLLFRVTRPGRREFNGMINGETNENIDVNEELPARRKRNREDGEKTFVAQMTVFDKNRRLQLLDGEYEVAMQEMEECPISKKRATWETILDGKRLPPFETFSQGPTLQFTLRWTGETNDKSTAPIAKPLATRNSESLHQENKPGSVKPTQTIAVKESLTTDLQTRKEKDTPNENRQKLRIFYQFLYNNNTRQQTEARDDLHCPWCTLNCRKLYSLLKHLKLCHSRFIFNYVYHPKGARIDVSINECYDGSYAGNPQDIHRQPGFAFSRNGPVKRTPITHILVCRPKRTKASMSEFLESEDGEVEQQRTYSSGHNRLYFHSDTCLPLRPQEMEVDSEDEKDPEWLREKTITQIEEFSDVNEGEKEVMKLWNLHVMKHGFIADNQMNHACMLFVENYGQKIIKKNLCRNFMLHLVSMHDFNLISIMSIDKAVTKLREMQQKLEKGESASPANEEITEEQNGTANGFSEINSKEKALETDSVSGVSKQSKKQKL
T1 sequence (Q09028 whole entry partner): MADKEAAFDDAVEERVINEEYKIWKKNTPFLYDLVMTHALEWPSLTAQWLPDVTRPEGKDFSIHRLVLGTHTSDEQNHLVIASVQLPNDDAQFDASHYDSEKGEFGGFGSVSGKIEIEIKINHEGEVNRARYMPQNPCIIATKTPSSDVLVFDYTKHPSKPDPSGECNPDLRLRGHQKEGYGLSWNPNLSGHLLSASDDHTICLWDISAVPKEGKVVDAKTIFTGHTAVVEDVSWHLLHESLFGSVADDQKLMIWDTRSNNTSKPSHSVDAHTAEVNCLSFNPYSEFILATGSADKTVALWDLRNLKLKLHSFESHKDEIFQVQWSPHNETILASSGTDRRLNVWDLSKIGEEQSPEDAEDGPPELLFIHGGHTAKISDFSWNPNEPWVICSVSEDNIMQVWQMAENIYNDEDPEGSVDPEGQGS
Assay type: biochemical
Description: General Materials. S-adenosylmethionine (SAM), S-adenosylhomocyteine (SAH), bicine, KCl, Tween20, dimethylsulfoxide (DMSO) and bovine skin gelatin (BSG) were purchased from Sigma-Aldrich at the highest level of purity possible. Dithiothreitol (DTT) was purchased from EMD Millipore. ^3H-SAM was purchased from American Radiolabeled Chemicals with a specific activity of 80 Ci/mmol. 384-well streptavidin Flashplates were purchased from PerkinElmer.
Substrates. Peptides representative of human histone H3 residues 21- 44 containing either an unmodified lysine 27 (H3K27me0) or dimethylated lysine 27 (H3K27me2) are synthesized with a C-terminal G(K-biotin) linker-affinity tag motif and a C-terminal amide cap by 21st Century Biochemicals. The peptides are high-performance liquid chromatography (HPLC) purified to greater than 95% purity and confirmed by liquid chromatography mass spectrometry (LC-MS). The sequences are listed below.
Recombinant PRC2 Enzymes. Human PRC2 enzymes were purified as 4-component enzyme complexes co-expressed in Spodoptera frugiperda (sf9) cells using a baculovirus expression system. The subunits expressed were wild-type EZH2 (NM_004456) or EZH2 Y641F, N, H, S or C mutants generated from the wild-type EZH2 construct, EED (NM_003797), Suz12 (NM_015355) and RbAp48 (NM_005610). The EED subunit contained an N-terminal FLAG tag that was used to purify the entire 4-component complex from sf9 cell lysates. The purity of the complexes met or exceeded 95% as determined by SDS-PAGE and Agilent Bioanalyzer analysis. Concentrations of enzyme stock concentrations (generally 0.3-1.0 mg/mL) was determined using a Bradford assay against a bovine serum albumin (BSA) standard.
General Procedure for PRC2 Enzyme Assays on Peptide Substrates. The assays were all performed in a buffer consisting of 20 mM bicine (pH=7.6), 0.5 mM DTT, 0.005% BSG and 0.002% Tween20, prepared on the day of use. Compounds in 100% DMSO (1 μL) were spotted into polypropylene 384-well V-bottom plates (Greiner) using a Platemate 2×3 outfitted with a 384-channel pipet head (Thermo). DMSO (1 μL) was added to columns 11, 12, 23, 24, rows A -H for the maximum signal control, and SAH, a known product and inhibitor of PRC2 (1 μL) was added to columns 11,12, 23, 24, rows I -P for the minimum signal control. A cocktail (40 μL) containing the wild-type PRC2 enzyme and H3K27me0 peptide or any of the Y641 mutant enzymes and H3K27me2 peptide was added by Multidrop Combi (Thermo). The compounds were allowed to incubate with PRC2 for 30 min at 25° C., then a cocktail (10 μL) containing a mixture of non-radioactive and ^3H-SAM was added to initiate the reaction (final volume=51 μL). In all cases, the final concentrations were as follows: wild-type or mutant PRC2 enzyme was 4 nM, SAH in the minimum signal control wells was 1 mM and the DMSO concentration was 1%. The assays were stopped by the addition of non-radioactive SAM (10 μL) to a final concentration of 600 μM, which dilutes the ^3H-SAM to a level where its incorporation into the peptide substrate is no longer detectable. 50 μL of the reaction in the 384-well polypropylene plate was then transferred to a 384-well Flashplate and the biotinylated peptides were allowed to bind to the streptavidin surface for at least 1 h before being washed three times with 0.1% Tween20 in a Biotek ELx405 plate washer. The plates were then read in a PerkinElmer TopCount platereader to measure the quantity of ^3H-labeled peptide bound to the Flashplate surface, measured as disintegrations per minute (dpm) or alternatively, referred to as counts per minute (cpm).
Where dpm=disintegrations per minute, cmpd=signal in assay well, and min and max are the respective minimum and maximum signal controls.
Where top and bottom are the normally allowed to float, but may be fixed at 100 or 0 respectively in a 3-parameter fit. The Hill Coefficient normally allowed to float but may also be fixed at 1 in a 3-parameter fit. […]
In the case of `CCN(c1cc(Cl)cc(C(=O)NCc2nccs2)c1C)C1CCOCC1` [Compound 24, 5-chloro-3-(ethyl(tetrahydro-2H-pyran-4-yl)amino)-2-methyl-N-(thiazol-2-ylmethyl)benzamide], the pIC50 was under 4.30.
In the case of `CCN(c1cc(Cl)cc(C(=O)NCc2cn(C)cn2)c1C)C1CCOCC1` [Compound 25, 5-chloro-3-(ethyl(tetrahydro-2H-pyran-4-yl)amino)-2-methyl-N-((1-methyl-1H-imidazol-4-yl)methyl)benzamide], the pIC50 was 5.11.
In the case of `CCN(c1cc(Cl)cc(C(=O)NCc2cn3ccsc3n2)c1C)C1CCOCC1` [Compound 26, 5-chloro-3-(ethyl(tetrahydro-2H-pyran-4-yl)amino)-N-(imidazo[2,1-b]thiazol-6-ylmethyl)-2-methylbenzamide], the pIC50 was under 4.30.
`CCN(c1cc(Cl)cc(C(=O)NCc2cnn(C)c2C)c1C)C1CCOCC1` [Compound 27, 5-chloro-N-((1,5-dimethyl-1H-pyrazol-4-yl)methyl)-3-(ethyl(tetrahydro-2H-pyran-4-yl)amino)-2-methylbenzamide] gave a pIC50 of under 4.30.
With `CCN(c1cc(Cl)cc(C(=O)NCc2ccn(C)n2)c1C)C1CCOCC1` [Compound 28, 5-chloro-3-(ethyl(tetrahydro-2H-pyran-4-yl)amino)-2-methyl-N-((1-methyl-1H-pyrazol-3-yl)methyl)benzamide] the pIC50 was 4.83.
In the case of `CCN(c1cc(Cl)cc(C(=O)NCc2cc(C)on2)c1C)C1CCOCC1` [Compound 29, 5-chloro-3-(ethyl(tetrahydro-2H-pyran-4-yl)amino)-2-methyl-N-((5-methylisoxazol-3-yl)methyl)benzamide], the pIC50 was under 4.30.
`CCN(c1cc(Cl)cc(C(=O)NCc2c[nH]cn2)c1C)C1CCOCC1` [Compound 30, N-((1H-imidazol-4-yl)methyl)-5-chloro-3-(ethyl(tetrahydro-2H-pyran-4-yl)amino)-2-methylbenzamide] was tested, and the pIC50 was 6.49.
With `CCN(c1cc(Cl)cc(C(=O)NCc2cc(C)nn2C)c1C)C1CCOCC1` [Compound 31, 5-chloro-N-((1,3-dimethyl-1H-pyrazol-5-yl)methyl)-3-(ethyl(tetrahydro-2H-pyran-4-yl)amino)-2-methylbenzamide] the pIC50 was under 4.30.
